In paper PMC9197168, “Structural Characterization of Mycobacterium abscessus Phosphopantetheine Adenylyl Transferase Ligand Interactions: Implications for Fragment-Based Drug Design” (Frontiers in Molecular Biosciences, 2022):
Read-outs that look alike come from different tables or passages of the source.

Legend:
[1] = target: Mab PPAT (Mycobacteroides abscessus, UniProt B1MDL6); assay: Isothermal titration calorimetry (ITC) on Mab PPAT; assay type: binding, Mycobacterium abscessus; conditions: for Kd: ITC
Sequence of Mab PPAT (B1MDL6 whole entry, the tested form may be a part): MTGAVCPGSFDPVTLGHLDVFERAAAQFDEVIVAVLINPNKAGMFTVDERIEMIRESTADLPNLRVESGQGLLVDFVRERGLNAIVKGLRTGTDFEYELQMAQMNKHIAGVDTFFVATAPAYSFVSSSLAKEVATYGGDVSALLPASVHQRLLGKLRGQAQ
Method: ITC experiments were done using an ITC200 (MicroCal) instrument. The Mab PPAT protein for ITC was dialysed overnight at 4°C in storage buffer (50 mM Tris-HCl pH 8.0, 150 mM NaCl) the same buffer was used for preparing the ligand solutions. The protein and ligands/fragments were used at a concentration of 72 μM and 1–5 mM, respectively. ITC recorded for ATP was done in buffer: 50 mM Hepes pH 8.0, 150 mM NaCl, 5 mM MgCl2, at Mab PPAT concentration of 200 uM and 3 mM ATP. Buffer components and other constituents like DMSO were kept constant in both protein and ligand solutions. Ligands to buffer titrations were subtracted in all cases and experiments were repeated at least twice. Data were analysed using the Origin software (OriginLab, Northampton, MA, United States).

[2] = target: Mtb PPAT; parameters: method as in El Bakali et al., 2020; conditions: ref El Bakali et al., 2020; cited from earlier work
[3] = system: M. abscessus ATCC19977 whole-cell cultures; assay: Whole-cell luciferase-reporter based luminescence assay; parameters: species or system Mycobacterium abscessus; conditions: up to a concentration of 200 µM; in comparison to positive control Amikacin; data not shown
[4] = target: M. abscessus PPAT (Mycobacteroides abscessus, UniProt B1MDL6); assay type: binding, Mycobacterium abscessus; conditions: Table 1; 10 μM PPAT, 5 mM compound, 5% DMSO
Sequence of M. abscessus PPAT (B1MDL6 whole entry): as the sequence (B1MDL6 whole entry, the tested form may be a part) above

[5] = Mab PPAT 72 μM, 50 mM Tris-HCl pH 8.0, 150 mM NaCl, read-out: Kd (Mab PPAT)
[6] = Mab PPAT, 50 mM Tris-HCl pH 8.0, 150 mM NaCl, read-out: Kd

SMILES | ΔΤm [4] | also measured
Nc1ncnc2c1ncn2[C@@H]1O[C@H](COP(=O)(O)OP(=O)(O)OP(=O)(O)O)[C@@H](O)[C@H]1O [ATP, Adenosine 5′ triphosphate, reference compound] | – | Kd ([1]; 50 mM Hepes pH 8.0, 150 mM NaCl, 5 mM MgCl2, Mab PPAT 200 uM, 3 mM ATP, read-out: Kd): 20.1 ± 3.3 µM
CC(C)(COP(=O)(O)OP(=O)(O)OC[C@H]1O[C@@H](n2cnc3c(N)ncnc32)[C@H](O)[C@@H]1OP(=O)(O)O)[C@@H](O)C(=O)NCCC(=O)NCCS [Coenzyme A, reference compound] | – | Kd [1, 5]: 8.2 ± 1.1 µM
O=C(O)c1cnn(-c2ccccc2)c1OCCCc1c[nH]c2ccccc12 [Compound 20] | – | Kd [2]: 15 ± 4 µM; cellular activity on whole-cell cultures [3]: low cellular activity; Kd [1, 5]: 3.2 ± 0.8 µM; binding affinity on Mab PPAT relative to that on Mtb PPAT ([1]; Mab PPAT versus Mtb PPAT (Kd 15 ± 4 µM)): ~5 fold; affinity relative to affinity of Mab PPAT for the substrate ATP ([1]; Mab PPAT, compound versus ATP): ≈ 7 fold
Cc1c(C(=O)O)cnn1-c1ccccc1 [Fragment 1] | +6 °C | Kd [1, 6]: 540 ± 20 µM
O=C(O)c1ccc2[nH]nc(Br)c2c1 [Fragment 2] | +12.5 °C | –
Cc1cn(CCC(=O)O)c2ccccc12 [Fragment 3] | +0.5 °C | –
O=C(O)C(O)c1cccc(Oc2ccccc2)c1 (stereo not shown) [Fragment 4] | +2.5 °C | –
O=C(O)CCc1c[nH]c2ccccc12 [Fragment 5] | +3.5 °C | Kd [1, 6]: 3200 ± 20 µM
O=C(O)c1ccccc1C(=O)c1ccc(Cl)c([N+](=O)[O-])c1 [Fragment 6] | +4.5 °C | –
O=C(O)c1cc2cc(F)ccc2[nH]1 [Fragment 7] | +3.5 °C | –
O=C(O)c1ccc2cc(F)ccc2c1 [Fragment 8] | +2.9 °C | –
O=C(O)Cc1ccc2ccccc2c1 [Fragment 9] | +2.3 °C | –
Cc1ccc(C(=O)O)c(C(=O)O)n1 [Fragment 10] | +2.0 °C | –
O=C(O)c1cc2ccccc2cc1O [Fragment 11] | +2.0 °C | –
O=C(O)C(O)Cc1c[nH]c2ccccc12 (stereo not shown) [Fragment 12] | +1.5 °C | –
N#Cc1ccc(Cl)cc1N [Fragment 13] | +1.5 °C | –
O=C(O)CCn1ccc2ccccc21 [Fragment 14] | +1 °C | –
Cc1ccc2oc(=O)cc(O)c2c1 [Fragment 15] | +0.5 °C | –
O=C(O)Cn1ccc2ccccc21 [Fragment 16] | -0.5 °C | –
